“Also recorded” adds a separate entry of the source.
Columns and labels:
[1] = system: CAM blood vessels (angiogenesis); test: Chorioallantoic membrane (CAM) model, drug-impregnated methylcellulose disk, image analysis of blood vessels (Example 1); type: in vivo, chicken; details: for effect on angiogenesis / blood vessel growth vs control: 5 μg each per disk; for Blood Vessel Mean Length / Blood Vessel Number / Blood Vessel Length: 48 hours, mean ± SEM; for Blood Vessel Length: total length
Protocol: (§1) The CAM model utilized in these studies has been described by Mazo et al. (FASEB J. 13: A527, 1999). In brief, fertilized white broiler chicken eggs were obtained from a local hatchery and kept at room temperature for 48 hours. The outside of the shells were washed with soap, and placed in a 70% ethyl alcohol bath for 30 seconds. The eggs were incubated at 37° C. for three days and rotated 180 degrees three times daily. After incubation, the eggs were cleansed with an iodine solution and dried on a sterile tray. The eggs were cracked, and the embryos explanted into spherical plastic 100 mm×25 mm weigh boats. Specimens were covered with a plastic lid, placed in a humidified chamber at 37° C., and maintained for 48 to 72 hours until the CAM achieved at least a 10 mm diameter.
Methylcellulose disks were prepared as reported by Mazo et al. (FASEB J. 13: A527, 1999). […] These doses were selected on the basis of prior animal and culture studies (Zagon I. S. et al., Am. J Physiol, 270: R22-R32 (1996); McLaughlin P. J. et al., Int. J. Oncol., 14: 991-998 (1999)). An equivalent volume of distilled water was utilized as a control (n=13). Another series of experiments employed retinoic acid (RA: 1 μg) (Oikawa T. et al., Cancer Letters, 48: 157-162 (1989)) (n=12), VEGF (1 μg) (Wilting J. et al., Cell Tissue Res., 274: 163-174 (1993)) (n=10) and an equivalent volume of water (n=10) to validate the CAM model employed, and to provide an internal comparison to the potential angiogenic effects of OGF with other known angioactive agents. These methylcellulose solutions were placed on the tips of 3.2 mm diameter Teflon rods and allowed to dry at room temperature for 1 hour under a vacuum hood. The resultant dried disks were removed from the Teflon rods and placed on the outer third of the CAM. Only one disk was placed on each CAM. The eggs were returned to the incubator for an additional 48 hours of growth prior to examination by image analysis (Mazo J. E. et al., FASEB J., 13: A527 (1999)).
Image analysis was preformed as described previously (Mazo J. E. et al., FASEB J, 13: A527 (1999)). The location of the disk was located visually on the CAM. An identifying mark was placed in the center of the disk and 2 ml of a 10% intralipid solution was injected into the CAM obscuring the underlying yolk vessels and providing an opaque white background for the superficial vessels. The CAM was imaged on a three-chip digital camera (DKC 500 Sony, Tokyo, Japan), digitized, and exported to a personal computer (FIG. 1). A 100 mm^2 region was defined around the disk in which blood vessel quantitation was performed (Optimas 6.0, Mediacybernetics, Bothell, Wash.). Calibration was achieved by imaging a ruler placed adjacent to the embryo preparation.
All arteries and veins in this designated region centered on the applied disk were analyzed. From the digitized image, an overlying mask was created and all blood vessels were traced within the region in an unblinded manner by two different individuals. The total number of blood vessels were counted and their individual lengths added to obtain total blood vessel length.
Data were exported to Microsoft Excel (Excel 97, Microsoft, Redmond, Wash.). All values were expressed as the mean±standard error of the mean. Statistical analysis was performed using the SigmaStat 1.0 statistical software package (Jandel, San Rafael, Calif.). The Mann-Whitney rank sum test or the Student t test was used to compare continuous data. Either the Fischer exact test or χ^2 test were used for dichotomous data. A p value of less than 0.05 indicated statistical significance.

[2] = system: CAM arteries and veins (angiogenesis); test: CAM assay with separate counting of arteries and veins (Example 2); type: in vivo, chick; details: for Number of Vessels, Artery / Number of Vessels, Vein / Total Vessel Length, Artery / Total Vessel Length, Vein / Number of Vessels, A/V Ratio / Total Vessel Length, A/V Ratio: mean ± SEM
Protocol: The CAM assay described above was utilized. After 3 days of incubation, fertilized chick embryos were explanted and 3.2 mm methylcellulose disk containing a compound was placed onto the CAM surface. After 2 days of growth, the CAM arteries and veins were identified and imaged with a digital camera. Arteries and veins were identified based on the presence of vessel pulsation (arteries), color, and direction of blood flow within the vessels. The main artery was oriented vertically with flow originating inferiorly. A white 10% intralipid solution was injected into the CAM to enhance visualization. Total number and length of veins and arteries were counted and measured.

[3] = system: embryos; test: Embryo survival after placement of drug onto the CAM; type: in vivo, chicken; details: 48 hours after placement of drug onto the CAM
Protocol: as §1
Methylcellulose disks were prepared as reported by Mazo et al. (FASEB J. 13: A527, 1999). […] These doses were selected on the basis of prior animal and culture studies (Zagon I. S. et al., Am. J Physiol, 270: R22-R32 (1996); McLaughlin P. J. et al., Int. J. Oncol., 14: 991-998 (1999)). An equivalent volume of distilled water was utilized as a control (n=13). […]

[4] = 1 μg per disk, another series of experiments

In the case of `C=CCN1CC[C@]23c4c5ccc(O)c4O[C@H]2C(=O)CC[C@@]3(O)[C@H]1C5` [NAL, naloxone, reference compound], the “effect on angiogenesis / blood vessel growth vs control” value [1] is reported as “no effect on vessel growth”.
With `O=C1CC[C@@]2(O)[C@H]3Cc4ccc(O)c5c4[C@@]2(CCN3CC2CC2)[C@H]1O5` [Naltrexone, reference compound] the “effect on angiogenesis / blood vessel growth vs control” value [1] was “Vessel inhibition is no longer seen”, the “effect on total blood vessel length vs control” value ([1]; 5 μg per disk) was “increased” and the “effect on total number of blood vessels vs control” value ([1]; 5 μg per disk) was “increased”. The “effect on mean blood vessel length vs control” value ([1]; 5 μg per disk, listed as NTX) was “decreased; also recorded: marked decrease”, the “Number of Vessels, Artery” value ([2]; 0.1 μg disk) was 80 ± 6 and the “Number of Vessels, Vein” value ([2]; 0.1 μg disk) was 83 ± 4. The “Total Vessel Length, Artery” value ([2]; 0.1 μg disk) was 112 ± 6 mm, the “Total Vessel Length, Vein” value ([2]; 0.1 μg disk) was 118 ± 6 mm and the “Number of Vessels, Artery” value ([2]; 5.0 μg disk) was 203 ± 7. The “Number of Vessels, Vein” value ([2]; 5.0 μg disk) was 97 ± 4, the “Total Vessel Length, Artery” value ([2]; 5.0 μg disk) was 174 ± 4 mm and the “Total Vessel Length, Vein” value ([2]; 5.0 μg disk) was 105 ± 2 mm. For the same compound, the “effect on mean length of blood vessels” value ([2]; summary of Table II) was “decreased” and the “effect on total number and length of blood vessels in comparison to controls” value ([2]; summary of Table II) was “markedly increased both total number and length of all blood vessels”.
For `CC1=C(/C=C/C(C)=C/C=C/C(C)=C/C(=O)O)C(C)(C)CCC1` [Retinoic acid, retinoic acid, reference compound], the “decrease in number of blood vessels compared to control group” value ([1]; 1 μg per disk) was 60%, the “decrease in total blood vessel length compared to control group” value ([1]; 1 μg per disk) was 33% and the “increase in mean blood vessel length relative to control group” value ([1]; 1 μg per disk) was 75%. For the same compound, the “Blood Vessel Mean Length” value [1, 4] was 2.07 ± 0.13 mm, the “Blood Vessel Number” value [1, 4] was 79 ± 10 and the “Blood Vessel Length” value [1, 4] was 153 ± 11 mm. For the same compound, the “Number of Vessels, A/V Ratio” value ([2]; dose not given) was 1.5 ± 0.1, the “Number of Vessels, Artery” value ([2]; dose not given) was 60 ± 5 and the “Number of Vessels, Vein” value ([2]; dose not given) was 39 ± 3. For the same compound, the “Total Vessel Length, A/V Ratio” value ([2]; dose not given) was 1.3 ± 0.1, the “Total Vessel Length, Artery” value ([2]; dose not given) was 83 ± 5 mm and the “Total Vessel Length, Vein” value ([2]; dose not given) was 66 ± 4 mm.
In the case of VEGF, the “decrease in mean blood vessel length in comparison to control” value ([1]; 1 μg per disk) is reported as 33%, the “effect on blood vessel growth vs control” value ([1]; 1 μg per disk) is reported as “excitatory effect on blood vessel growth” and the “effect on calculated mean vessel length vs control” value ([1]; 1 μg per disk) is reported as “decreased”. The “effect on number of blood vessels vs control” value ([1]; 1 μg per disk) was “markedly increased”, the “effect on total length of blood vessels vs control” value ([1]; 1 μg per disk) was “marked increase” and the “increase in total vessel length in comparison to control” value ([1]; 1 μg per disk) was 22%. The “increase in vessel number in comparison to control” value ([1]; 1 μg per disk) was 83%, the “Blood Vessel Mean Length” value [1, 4] was 0.79 ± 0.02 mm and the “Blood Vessel Number” value [1, 4] was 358 ± 16. The “Blood Vessel Length” value [1, 4] was 280 ± 7 mm, the “Number of Vessels, A/V Ratio” value ([2]; 0.2 μg disk) was 1.3 ± 0.1 and the “Number of Vessels, Artery” value ([2]; 0.2 μg disk) was 83 ± 5. The “Number of Vessels, Vein” value ([2]; 0.2 μg disk) was 75 ± 11, the “Total Vessel Length, A/V Ratio” value ([2]; 0.2 μg disk) was 1.2 ± 0.1 and the “Total Vessel Length, Artery” value ([2]; 0.2 μg disk) was 117 ± 3 mm. The “Total Vessel Length, Vein” value ([2]; 0.2 μg disk) was 109 ± 14 mm, the “Number of Vessels, A/V Ratio” value ([2]; 1.0 μg disk) was 2.2 ± 0.2 and the “Number of Vessels, Artery” value ([2]; 1.0 μg disk) was 248 ± 13. For the same compound, the “Number of Vessels, Vein” value ([2]; 1.0 μg disk) was 120 ± 7, the “Total Vessel Length, A/V Ratio” value ([2]; 1.0 μg disk) was 1.5 ± 0.2 and the “Total Vessel Length, Artery” value ([2]; 1.0 μg disk) was 173 ± 8 mm. The “Total Vessel Length, Vein” value ([2]; 1.0 μg disk) was 117 ± 5 mm.
For [Met^5]-enkephalin [OGF], the “effect on angiogenesis / blood vessel growth vs control” value [1] was “blood vessel growth was suppressed; also recorded: marked inhibitory effect on angiogenesis”, the “decrease in number of blood vessels in comparison to controls” value ([1]; 5 μg per disk) was 35% and the “decrease in total blood vessel length in contrast to control” value ([1]; 5 μg per disk) was 20%. For the same compound, the “effect on mean blood vessel length vs control” value ([1]; 5 μg per disk) was “significantly increases”, the “effect on total blood vessel length vs control” value ([1]; 5 μg per disk) was “significantly inhibited” and the “effect on total number of blood vessels vs control” value ([1]; 5 μg per disk) was “significantly decreases”. For the same compound, the “increase in mean blood vessel length from control values” ([1]; 5 μg per disk) was 23%, the “Blood Vessel Number” value ([1]; 5 μg per disk, 100 mm^2 region around disk) was 102 ± 11 and the “Blood Vessel Mean Length” value ([1]; 5 μg per disk, 100 mm^2 region) was 1.81 ± 0.13 mm. For the same compound, the “Blood Vessel Length” value ([1]; 5 μg per disk, 100 mm^2 region) was 179 ± 12 mm, the “Number of Vessels, A/V Ratio” value ([2]; 1.0 μg disk) was 1.1 ± 0.2 and the “Number of Vessels, Artery” value ([2]; 1.0 μg disk) was 53 ± 5. The “Number of Vessels, Vein” value ([2]; 1.0 μg disk) was 56 ± 8, the “Total Vessel Length, A/V Ratio” value ([2]; 1.0 μg disk) was 1.2 ± 0.2 and the “Total Vessel Length, Artery” value ([2]; 1.0 μg disk) was 84 ± 5 mm. The “Total Vessel Length, Vein” value ([2]; 1.0 μg disk) was 81 ± 11 mm, the “Number of Vessels, A/V Ratio” value ([2]; 5.0 μg disk) was 1.6 ± 0.1 and the “Number of Vessels, Artery” value ([2]; 5.0 μg disk) was 79 ± 4. The “Number of Vessels, Vein” value ([2]; 5.0 μg disk) was 51 ± 2, the “Total Vessel Length, A/V Ratio” value ([2]; 5.0 μg disk) was 1.3 ± 0.1 and the “Total Vessel Length, Artery” value ([2]; 5.0 μg disk) was 107 ± 4 mm. The “Total Vessel Length, Vein” value ([2]; 5.0 μg disk) was 82 ± 3 mm, the “effect on artery/vein ratios for vessel number and length” value ([2]; summary of Table II) was “decreased artery/vein ratios” and the “effect on total number and length of blood vessels in comparison to controls” value ([2]; summary of Table II) was “decreased total number and length of blood vessels”. For the same compound, the “toxicity (embryo survival)” value [3] was “all embryos survived”.
